Target: human δ-opioid receptor (Homo sapiens, UniProt P41143)
Test: [35S]-GTPγS functional assay
Assay type: biochemical
Details: from [35S]-GTPγS assay

Chain of human δ-opioid receptor (P41143 whole entry): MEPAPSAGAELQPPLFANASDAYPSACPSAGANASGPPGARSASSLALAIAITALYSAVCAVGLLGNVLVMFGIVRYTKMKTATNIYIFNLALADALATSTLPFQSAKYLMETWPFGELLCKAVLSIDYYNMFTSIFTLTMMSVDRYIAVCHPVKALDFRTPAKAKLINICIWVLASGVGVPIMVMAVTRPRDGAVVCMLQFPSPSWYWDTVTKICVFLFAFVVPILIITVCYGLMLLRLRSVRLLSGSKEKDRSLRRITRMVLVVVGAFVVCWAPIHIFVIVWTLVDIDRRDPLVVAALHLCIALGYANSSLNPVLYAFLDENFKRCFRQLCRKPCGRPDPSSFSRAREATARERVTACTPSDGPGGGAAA

## COc1cc(O)c2c(c1)CC(=O)CCCC(=O)CCC[C@@H](C)OC2=O [Compound 4, neocosmosin C]
  classification of functional activity at the human δ-opioid receptor: full agonist
